Assay results as given in article PMC12299174, “Design, Synthesis, and Evaluation of 1-Benzylpiperidine and 1-Benzoylpiperidine Derivatives as Dual-Target Inhibitors of Acetylcholinesterase and Serotonin Transporter for Alzheimer′s Disease” (Molecules, 2025).
Structures can show the parent of a compound that is named as a salt. Where two headings read alike, the source gives them in different places.

Key:
h-SERT = biological target: T1, h-SERT (Homo sapiens, UniProt P31645); assay: biochemical; assay type: binding; details: displacement of 2 nM [3H]-paroxetine, HEK293 membranes, Cheng-Prusoff
T1 construct: purchased Perkin-Elmer RBHSTM400UA; host or cells: HEK293 membranes
Protocol: Competitive binding studies were conducted on homogenized membranes prepared from the human clonal cell line HEK293 for h-SERT. […] The inhibitory activity on AChE or butyrylcholinesterase (BuChE), which has also been regarded as a relevant cholinesterase target in AD [23], was determined using the spectrophotometric method, as described by Ellman, modified from Mella (Section 3.3).
The cellular background HEK293 containing 400 µL of h-SERT (Code RBHSTM400UA, Perkin-Elmer, Santiago, Chile) was diluted in 12 Eppendorf tubes, containing a storage buffer solution of Tris-HCl 50 mM (pH 7.4), EDTA 0.5 mM, MgCl2 10 mM, and 10% sucrose, obtaining a final volume between 260 and 340 µL, which was finally stored at −80 °C [27]. […] Non-specific binding was determined using […] fluoxetine. After 30 min at 27 °C, the incubation was stopped by rapid filtration on a Whatman GF/C filter preabsorbed in 0.5% polyethylenimine (PEI), washed with cold working buffer solution, 3 × 3 mL, filtered, and scintillation liquid was added.

AChE = AChE (Homo sapiens, UniProt P22303); assay: biochemical; details: means ± SD of three determinations, 30 min preincubation at 25 °C, pH 7.5
BuChE = BuChE (Homo sapiens, UniProt P06276); assay: biochemical
human AChE; h-AChE = details: read-out: IC50 in human AChE (h-AChE); ref [14],[15],[16]; cited from earlier work
[1] = means ± SD of three determinations, 30 min preincubation at 25 °C, pH 7.5, read-out: BuChE IC50

Chain of BuChE (P06276 29-602): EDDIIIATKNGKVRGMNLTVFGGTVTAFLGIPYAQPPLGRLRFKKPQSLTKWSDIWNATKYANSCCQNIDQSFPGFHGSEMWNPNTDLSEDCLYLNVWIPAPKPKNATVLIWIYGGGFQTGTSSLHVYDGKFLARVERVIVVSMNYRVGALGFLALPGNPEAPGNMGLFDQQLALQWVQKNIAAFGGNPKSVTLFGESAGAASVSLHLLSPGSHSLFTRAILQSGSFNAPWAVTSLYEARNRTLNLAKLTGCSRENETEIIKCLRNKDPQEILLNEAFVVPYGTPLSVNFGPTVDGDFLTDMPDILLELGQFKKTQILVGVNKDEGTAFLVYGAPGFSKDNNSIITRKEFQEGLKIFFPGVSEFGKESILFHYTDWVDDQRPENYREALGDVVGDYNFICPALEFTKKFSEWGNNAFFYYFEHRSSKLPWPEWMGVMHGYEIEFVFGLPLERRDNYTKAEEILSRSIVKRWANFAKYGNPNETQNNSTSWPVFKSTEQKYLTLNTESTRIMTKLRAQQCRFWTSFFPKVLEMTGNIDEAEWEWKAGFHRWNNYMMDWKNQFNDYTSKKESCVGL
Chain of AChE (P22303 32-614): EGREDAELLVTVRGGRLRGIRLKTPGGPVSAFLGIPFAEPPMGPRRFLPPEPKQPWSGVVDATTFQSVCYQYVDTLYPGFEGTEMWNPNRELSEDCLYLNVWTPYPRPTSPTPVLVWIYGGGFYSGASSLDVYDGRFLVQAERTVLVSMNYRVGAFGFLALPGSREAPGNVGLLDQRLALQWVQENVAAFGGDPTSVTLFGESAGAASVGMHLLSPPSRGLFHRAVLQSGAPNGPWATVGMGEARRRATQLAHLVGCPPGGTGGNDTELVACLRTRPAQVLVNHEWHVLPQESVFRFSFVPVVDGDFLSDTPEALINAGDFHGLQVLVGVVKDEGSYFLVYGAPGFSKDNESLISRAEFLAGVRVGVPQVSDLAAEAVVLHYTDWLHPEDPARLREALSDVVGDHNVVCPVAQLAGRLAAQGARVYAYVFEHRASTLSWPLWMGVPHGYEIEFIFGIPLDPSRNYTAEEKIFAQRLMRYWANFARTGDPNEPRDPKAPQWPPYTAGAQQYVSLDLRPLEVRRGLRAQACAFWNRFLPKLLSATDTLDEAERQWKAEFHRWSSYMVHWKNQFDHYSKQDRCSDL
T1 sequence (P31645 whole entry): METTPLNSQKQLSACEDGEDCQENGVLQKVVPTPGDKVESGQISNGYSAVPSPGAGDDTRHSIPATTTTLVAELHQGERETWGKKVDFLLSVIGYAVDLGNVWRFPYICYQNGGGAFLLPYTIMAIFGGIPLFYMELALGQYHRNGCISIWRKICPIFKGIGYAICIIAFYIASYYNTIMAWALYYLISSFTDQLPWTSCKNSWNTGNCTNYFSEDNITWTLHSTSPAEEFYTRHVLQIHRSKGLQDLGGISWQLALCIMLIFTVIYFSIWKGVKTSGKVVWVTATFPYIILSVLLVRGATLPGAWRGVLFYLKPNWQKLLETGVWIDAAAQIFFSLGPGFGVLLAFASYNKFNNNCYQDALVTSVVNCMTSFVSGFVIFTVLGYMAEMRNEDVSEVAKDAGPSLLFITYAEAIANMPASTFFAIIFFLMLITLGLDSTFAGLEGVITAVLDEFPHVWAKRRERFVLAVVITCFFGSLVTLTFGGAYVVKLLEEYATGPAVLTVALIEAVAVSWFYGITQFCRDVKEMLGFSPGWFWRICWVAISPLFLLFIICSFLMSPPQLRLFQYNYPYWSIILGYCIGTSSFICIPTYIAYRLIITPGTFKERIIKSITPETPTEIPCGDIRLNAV

SMILES	Ki (h-SERT)	IC50 (AChE; read-out: AChE IC50)	IC50 (BuChE; [1])	IC50 (AChE; AChE IC50 (µM))	IC50 (BuChE)	IC50 (human AChE; h-AChE)
COc1cc2c(cc1OC)CN(C(=O)C1CCN(Cc3ccccc3)CC1)CC2 [Compound 7, (1-Benzylpiperidin-4-yl)(6,7-dimethoxy-3,4-dihydroisoquinolin-2(1H)-yl)methanone]	> 100 µM	34.4 ± 0.51 µM	> 500 µM	–	–	–
COc1cc2c(cc1OC)CN(C(=O)C1CCN(Cc3cccc(F)c3)CC1)CC2 [Compound 8, (6,7-Dimethoxy-3,4-dihydroisoquinolin-2(1H)-yl)(1-(3-fluorobenzyl)piperidin-4-yl)methanone]	> 100 µM	41.2 ± 3.17 µM	> 500 µM	–	–	–
COc1cc2c(cc1OC)CN(C(=O)C1CCN(Cc3cccc(Cl)c3)CC1)CC2 [Compound 9, (1-(3-Chlorobenzyl)piperidin-4-yl)(6,7-dimethoxy-3,4-dihydroisoquinolin-2(1H)-yl)methanone]	> 100 µM	34.5 ± 1.97 µM	268 ± 13.8 µM	–	–	–
COc1cc2c(cc1OC)CN(C(=O)C1CCN(Cc3cccc(Br)c3)CC1)CC2 [Compound 10, (1-(3-Bromobenzyl)piperidin-4-yl)(6,7-dimethoxy-3,4-dihydroisoquinolin-2(1H)-yl)methanone]	> 100 µM	28.3 ± 0.87 µM	426 ± 28.6 µM	–	–	–
COc1cc2c(cc1OC)CN(C(=O)C1CCN(Cc3ccc(Cl)cc3Cl)CC1)CC2 [Compound 11, (1-(2,4-Dichlorobenzyl)piperidin-4-yl)(6,7-dimethoxy-3,4-dihydroisoquinolin-2(1H)-yl)methanone]	> 100 µM	> 500 µM	> 500 µM	–	–	–
COc1cc2c(cc1OC)CN(CC1CCN(C(=O)c3ccccc3)CC1)CC2 [Compound 12, (4-((6,7-Dimethoxy-3,4-dihydroisoquinolin-2(1H)-yl)methyl)piperidin-1-yl)(phenyl)methanone]	2.62 ± 0.82 µM	290 ± 10.9 µM	> 500 µM	–	–	–
COc1cc2c(cc1OC)CN(CC1CCN(C(=O)c3cccc(F)c3)CC1)CC2 [Compound 13, (4-((6,7-Dimethoxy-3,4-dihydroisoquinolin-2(1H)-yl)methyl)piperidin-1-yl)(3-fluorophenyl)methanone]	1.91 ± 0.77 µM	> 500 µM	> 500 µM	–	–	–
COc1cc2c(cc1OC)CN(CC1CCN(C(=O)c3cccc(Cl)c3)CC1)CC2 [Compound 14, (3-Chlorophenyl)(4-((6,7-dimethoxy-3,4-dihydroisoquinolin-2(1H)-yl)methyl)piperidin-1-yl)methanone]	2.43 ± 0.24 µM	> 500 µM	> 500 µM	–	–	–
COc1cc2c(cc1OC)CN(CC1CCN(C(=O)c3cccc(Br)c3)CC1)CC2 [Compound 15, (3-Bromophenyl)(4-((6,7-dimethoxy-3,4-dihydroisoquinolin-2(1H)-yl)methyl)piperidin-1-yl)methanone]	1.47 ± 0.73 µM	242 ± 24.4 µM	> 500 µM	–	–	–
COc1cccc(C(=O)N2CCC(CN3CCc4cc(OC)c(OC)cc4C3)CC2)c1 [Compound 16, (4-((6,7-Dimethoxy-3,4-dihydroisoquinolin-2(1H)-yl)methyl)piperidin-1-yl)(3-methoxyphenyl)methanone]	1.59 ± 0.58 µM	439 ± 28 µM	> 500 µM	–	–	–
O=C(Cc1ccccc1)OCC1CCN(Cc2ccccc2)CC1 [Compound 18, (1-Benzylpiperidin-4-yl)methyl-2-phenylacetate]	27.1 ± 3.4 µM	–	–	200 ± 8.61 µM	256 ± 5.03 µM	–
O=C(Cc1ccc(F)cc1)OCC1CCN(Cc2ccccc2)CC1 [Compound 19, (1-Benzylpiperidin-4-yl)methyl-2-(4-fluorophenyl)acetate]	–	5.1 ± 0.24 µM	26.8 ± 0.81 µM	–	–	–
O=C(Cc1ccc(Cl)cc1)OCC1CCN(Cc2ccccc2)CC1 [Compound 20, (1-Benzylpiperidin-4-yl)methyl-2-(4-chlorophenyl)acetate]	> 100 µM	259 ± 14.6 µM	> 500 µM	–	–	–
O=C(OCC1CCN(Cc2ccccc2)CC1)C(c1ccccc1)c1ccccc1 [Compound 21, (1-Benzylpiperidin-4-yl)methyl-2,2-diphenylacetate]	25.5 ± 1.01 µM	> 500 µM	6.16 ± 0.29 µM	–	–	–
O=C(OCC1CCN(Cc2ccccc2)CC1)c1ccc2ccccc2c1 [Compound 22, (1-Benzylpiperidin-4-yl)methyl-2-naphthoate]	26.9 ± 2.57 µM	61.7 ± 2.56 µM	59.3 ± 1.42 µM	–	–	–
COc1ccc2c3c1O[C@H]1C[C@@H](O)C=C[C@@]31CCN(C)C2 [GAL, Galantamine hydrobromide]	–	–	–	–	–	18.6 µM
